Patent US20220279826A1, “OFF-FLAVOR SUPPRESSING AGENT” (AJINOMOTO CO., INC., priority 2019, published 2022)

Assays:
[1] = Sensory evaluation of off-taste suppressing effect in 0.8 wt % potassium chloride aqueous solution (Experimental Examples 1 and 2)
Experimental: Each compound shown in the following Tables 1 to 13 was added to a 0.8 wt % potassium chloride aqueous solution at the concentration (addition concentration) shown in the following Tables 1 to 13 to prepare each evaluation sample.
(§1) Based on the following evaluation criteria, a panel of two experts determined by consensus the intensity of off-tastes (bitter taste, metallic taste, harsh taste, astringent taste) derived from potassium chloride in each evaluation sample, by reference to each potassium chloride aqueous solution adjusted to 0.8 wt %, 0.75 wt %, 0.7 wt %, or 0.65 wt %.
−: intensity of the same level as potassium chloride aqueous solution with potassium chloride concentration of not less than 0.8 wt %
+: intensity of the same level as potassium chloride aqueous solution with potassium chloride concentration of not less than 0.75 wt % and less than 0.8 wt %
++: intensity of the same level as potassium chloride aqueous solution with potassium chloride concentration of not less than 0.7 wt % and less than 0.75 wt %
+++: intensity of the same level as potassium chloride aqueous solution with potassium chloride concentration of not less than 0.65 wt % and less than 0.7 wt %
Each compound shown in the following Table 14 was added to a 0.8 wt % potassium chloride aqueous solution at the concentration (addition concentration) shown in the following Table 14 to prepare each evaluation sample.

[2] = Sensory evaluation in Japanese noodle soup base solution with potassium chloride (0.2 g) (Experimental Example 5); conditions: for off-taste suppressing effect: Japanese noodle soup base solution, potassium chloride 0.2 g; for intensity of off-tastes (bitter taste, metallic taste, harsh taste, astringent taste) derived from potassium chloride: base solution of Table 19
Experimental: Potassium chloride (0.2 g) was added to a commercially available Japanese noodle soup base (manufactured by Yamaki Co., Ltd.) (11.1 g), and dissolved by adding hot water (88.7 g) to prepare a base solution.
Each compound shown in the following Table 19 was added to the base solution prepared above so as to achieve the concentration (addition concentration) shown in the following Table 19 to prepare each evaluation sample.
as §1, with “0.2” for “0.8”, “0.15” for “0.75”, “%” for “%, 0.7 wt %,”, “0.1” for “0.65”

[3] = 0.8 wt % potassium chloride aqueous solution, addition concentration 100 weight ppb (12.5 weight ppm with respect to potassium chloride)
[4] = in words, potassium chloride aqueous solutions, Tables 1 to 14
[5] = potassium chloride aqueous solutions, Tables 1 to 14
[6] = 0.8 wt % potassium chloride aqueous solution, addition concentration 1 weight ppb (0.125 weight ppm with respect to potassium chloride)
[7] = 0.8 wt % potassium chloride aqueous solution, addition concentration 5 weight ppb (0.625 weight ppm with respect to potassium chloride)
[8] = 0.8 wt % potassium chloride aqueous solution, addition concentration 10 weight ppb (1.25 weight ppm with respect to potassium chloride)
[9] = 0.8 wt % potassium chloride aqueous solution, addition concentration 50 weight ppb (6.25 weight ppm with respect to potassium chloride)
[10] = 0.8 wt % potassium chloride aqueous solution, addition concentration 500 weight ppb (62.5 weight ppm with respect to potassium chloride)
[11] = 0.8 wt % potassium chloride aqueous solution, addition concentration 1000 weight ppb (125 weight ppm with respect to potassium chloride)

| Compound | off-taste suppressing effect [1, 3] | off-taste suppressing effect [1, 4] | intensity of off-tastes (bitter taste, metallic taste, harsh taste, astringent taste) derived from potassium chloride [1, 5] | off-taste suppressing effect [1, 11] | further results |
| --- | --- | --- | --- | --- | --- |
| CCc1ccco1 [2-ethylfuran, reference compound] | − (intensity of the same level as potassium chloride aqueous solution with potassium chloride concentration of not less than 0.8 wt %) | could not be confirmed | did not show changes | – | – |
| CCCCCc1ccco1 [2-pentylfuran, reference compound] | − (intensity of the same level as potassium chloride aqueous solution with potassium chloride concentration of not less than 0.8 wt %) | could not be confirmed | did not show changes | – | – |
| CC(=O)c1cc(C)oc1C [3-acetyl-2,5-dimethylfuran] | – | – | decreased | – | off-taste suppressing effect [1, 6]: + (intensity of the same level as potassium chloride aqueous solution with potassium chloride concentration of not less than 0.75 wt % and less than 0.8 wt %); off-taste suppressing effect [1, 7]: ++ (intensity of the same level as potassium chloride aqueous solution with potassium chloride concentration of not less than 0.7 wt % and less than 0.75 wt %); off-taste suppressing effect [1, 8]: + (intensity of the same level as potassium chloride aqueous solution with potassium chloride concentration of not less than 0.75 wt % and less than 0.8 wt %); off-taste suppressing effect ([2]; addition concentration 5 weight ppb (2.5 weight ppm with respect to potassium chloride)): +++ (intensity of the same level as potassium chloride aqueous solution with potassium chloride concentration of less than 0.1 wt %); intensity of off-tastes (bitter taste, metallic taste, harsh taste, astringent taste) derived from potassium chloride [2]: decreased |
| CC(=O)OC1=C(C)OC(C)C1=O (stereo not shown) [4-acetoxy-2,5-dimethyl-3(2H)-furanone] | ++ (intensity of the same level as potassium chloride aqueous solution with potassium chloride concentration of not less than 0.7 wt % and less than 0.75 wt %) | – | decreased | – | off-taste suppressing effect [1, 9]: + (intensity of the same level as potassium chloride aqueous solution with potassium chloride concentration of not less than 0.75 wt % and less than 0.8 wt %); off-taste suppressing effect [1, 10]: + (intensity of the same level as potassium chloride aqueous solution with potassium chloride concentration of not less than 0.75 wt % and less than 0.8 wt %); off-taste suppressing effect ([2]; addition concentration 100 weight ppb (50 weight ppm with respect to potassium chloride)): + (intensity of the same level as potassium chloride aqueous solution with potassium chloride concentration of not less than 0.15 wt % and less than 0.2 wt %); intensity of off-tastes (bitter taste, metallic taste, harsh taste, astringent taste) derived from potassium chloride [2]: decreased |
| CCC1OC(=O)C(O)=C1C (stereo not shown) [5-ethyl-3-hydroxy-4-methyl-2(5H)-furanone, reference compound] | − (intensity of the same level as potassium chloride aqueous solution with potassium chloride concentration of not less than 0.8 wt %) | could be hardly confirmed | – | − (intensity of the same level as potassium chloride aqueous solution with potassium chloride concentration of not less than 0.8 wt %) | off-taste suppressing effect [1, 6]: − (intensity of the same level as potassium chloride aqueous solution with potassium chloride concentration of not less than 0.8 wt %); off-taste suppressing effect [1, 7]: + (intensity of the same level as potassium chloride aqueous solution with potassium chloride concentration of not less than 0.75 wt % and less than 0.8 wt %); off-taste suppressing effect [1, 8]: + (intensity of the same level as potassium chloride aqueous solution with potassium chloride concentration of not less than 0.75 wt % and less than 0.8 wt %); off-taste suppressing effect [1, 9]: − (intensity of the same level as potassium chloride aqueous solution with potassium chloride concentration of not less than 0.8 wt %); off-taste suppressing effect [1, 10]: − (intensity of the same level as potassium chloride aqueous solution with potassium chloride concentration of not less than 0.8 wt %) |
| CCC1=C(O)C(=O)C(C)O1 (stereo not shown) [5-ethyl-4-hydroxy-2-methyl-3(2H)-furanone, reference compound] | − (intensity of the same level as potassium chloride aqueous solution with potassium chloride concentration of not less than 0.8 wt %) | could be hardly confirmed | – | – | off-taste suppressing effect [1, 8]: − (intensity of the same level as potassium chloride aqueous solution with potassium chloride concentration of not less than 0.8 wt %); off-taste suppressing effect [1, 9]: + (intensity of the same level as potassium chloride aqueous solution with potassium chloride concentration of not less than 0.75 wt % and less than 0.8 wt %) |
| CC(=O)O [acetic acid, reference compound] | – | could not be confirmed | did not show changes | − (intensity of the same level as potassium chloride aqueous solution with potassium chloride concentration of not less than 0.8 wt %) | – |
| CCCC(=O)O [butyric acid] | − (intensity of the same level as potassium chloride aqueous solution with potassium chloride concentration of not less than 0.8 wt %) | – | decreased | + (intensity of the same level as potassium chloride aqueous solution with potassium chloride concentration of not less than 0.75 wt % and less than 0.8 wt %) | off-taste suppressing effect [1, 10]: + (intensity of the same level as potassium chloride aqueous solution with potassium chloride concentration of not less than 0.75 wt % and less than 0.8 wt %) |
| O=CO [formic acid, reference compound] | – | could not be confirmed | did not show changes | − (intensity of the same level as potassium chloride aqueous solution with potassium chloride concentration of not less than 0.8 wt %) | – |
| CCCCCC(=O)O [hexanoic acid, reference compound] | – | could not be confirmed | did not show changes | − (intensity of the same level as potassium chloride aqueous solution with potassium chloride concentration of not less than 0.8 wt %) | – |
| CCCCC(=O)O [pentanoic acid, reference compound] | – | could not be confirmed | did not show changes | − (intensity of the same level as potassium chloride aqueous solution with potassium chloride concentration of not less than 0.8 wt %) | – |
